From patent US11419806B2, “Prebiotic oral care methods using a saccharide” (Colgate-Palmolive Company, priority 2013, dated 2022)

Tests used:
Format in all cases: cell-based
Actinomyces viscosus = assay: Phenotype microarray metabolic activity; settings: for metabolic activity: OD 492 nm divided by OD of control (control = 1): A viscosus
Method: (§1) The extent of metabolic activity of the tested bacteria in the presence of the above-mentioned saccharides after 24 hours and 48 hours was investigated through a high throughput phenotype microarray system (PM) for microbial cells (Biolog Inc.). Each PM can contain up to 95 different biochemical compounds (e.g. saccharides) that may act as substrates for bacteria as well as one negative control, not containing the substrates. Microarray plates were used in which the different wells of each plate were pre-loaded (by the manufacturer, Biolog Inc.) with different saccharides to be tested. Each bacterial species was tested using a separate microarray plate. Thus, a single bacterial species was tested with a variety of saccharides on each particular plate. The microarrays are based on redox technology, using cell respiration as a universal reporter. Active cell respiration results in the reduction of a tetrazolium dye and in the formation of a strong color—for example, when using the tetrazolium dye “Biolog Redox Dye Mix D”, the color changes from transparent/colorless to purple when the dye is reduced. The observation of this color change indicates which of the substrates improve the metabolic activity and health of the cells.
(§2) Each bacterial species was collected from blood agar plates (incubated for 48 hours anaerobically at 37° C.) and transferred to an IF-0 Base inoculation fluid (Biolog Inc.), which is a nutritionally poor medium. The resulting cell suspension was adjusted to a transmittance of 42% (relative to the transmittance of the base inoculation fluid with no bacterial species present) at 492 nm using a BioRad SmartSpec 3000 Photometer (the adjustment being effected by adding either further inoculation fluid or further bacteria until the transmittance of 42% was achieved). A 1:5 dilution of this suspension was prepared by mixing 3 mL of the 42% transmittance cell suspension with 15 mL of an inoculation fluid (which inoculation fluid was formed by mixing 11.6 mL sterile water, 62.5 mL IF-0 base inoculation fluid and 0.9 mL of the tetrazolium dye “Biolog Redox Dye mix D”), resulting in a final cell density which was equal to 85% transmittance using a BioRad SmartSpec 3000 Photometer. For each of the saccharides tested, the microarray plate (obtained from the supplier (Biolog Inc.) with saccharides already present in the relevant wells in powder form) was directly inoculated with 100 μL/well of this 85% transmittance cell suspension.
(§3) All plates were incubated in an anaerobic atmosphere at 37° C. Color changes were measured spectrophotometrically at 492 nm (Thermo Scientific Multiskan Ascent) at 24 hrs and 48 hrs using the same plate at both time points. […] After 24 hrs and 48 hrs under continuous shaking in a Multiscan microplate reader, the optical density (OD) of the synthetic medium at 24 hours and 48 hours was measured (using the microplate reader) at a wavelength of 492 nm for each combination of bacterium/saccharide, and for each of their respective controls (i.e. which contained the particular bacterium but no saccharide).
(§4) The experiment was carried out three times for each combination of bacterium with saccharide, with each repeat being carried out on a different day (thus providing three biological replicas). The controls were also carried out three times, as above. The values shown are the average (mean) of the three single values obtained (as detailed above) for each combination of bacterium with saccharide, at 24 hrs and at 48 hrs.

[1] = tested on: Aggregatibacter actinomycetemcomitans; assay: Phenotype microarray metabolic activity; settings: A actinomycetemcomitans
Method: as §1, §2, §3, §4

Prevotella intermedia = assay: Phenotype microarray metabolic activity; settings: P intermedia
Method: as §1, §2, §3, §4

Streptococcus mutans = assay: Phenotype microarray metabolic activity; settings: for metabolic activity: OD 492 nm divided by OD of control (control = 1): S mutans
Method: as §1, §2, §3, §4

Streptococcus salivarius = assay: Phenotype microarray metabolic activity; settings: for metabolic activity: OD 492 nm divided by OD of control (control = 1): S salivarius
Method: as §1, §2, §3, §4

S. mitis = assay: Twenty-four hour biofilm growth (crystal violet)
Method: (§5) The increase in biofilm formation of the tested bacteria in response to selected saccharides (D-turanose, D-lactitol, myo-inositol, and N-acetyl-D-mannosamine) was investigated by setting up biofilm growth assays in a nutritionally rich medium (brain heart infusion broth (BHI), Oxoid), over 24 hours. Late exponential growth phase liquid cultures were prepared by transferring the respective bacterium from blood agar plates to BHI and overnight incubation at 37° C. in an anaerobic atmosphere for A. viscosus, V. parvula, P. gingivalis, P. intermedia, T. forsythia, A. naeslundii, and C. sputigena, and in a 5% CO2 environment for S. salivarius, S. sanguinis, S. mitis, A. actinomycetemcomitans, S. mutans, and S. gordonii. Overnight cultures were transferred to BHI and adjusted to a concentration of 1×10^7 CFU/ml by measuring the optical density at 600 nm (OD600) (BioRad SmartSpec 3000). For each strain, 200 μl of the bacterial suspension was added to a 96-well plate containing 20 μl of the respective saccharides. Final concentrations of the saccharides were set to 5, 10, 20 and 25 μmol/ml. […] Additionally, for each bacterium tested, a background control, to correct for background staining, was added. This background control contained the bacterium tested and 0.03 weight % chlorhexidine, as an antiseptic. Plates were incubated as previously described. After 24 hrs the supernatant was removed from the wells of the plates. The wells were washed twice with 1×100 μL PBS (phosphate buffered saline), fixed for 20 minutes with 96% vol. ethanol (96% vol. solution in water) and the biofilm retained at the bottom of the wells was stained with 1 weight % crystal violet (1 weight % solution in water). The bound dye was dissolved with 5% vol. acetic acid (5% vol. solution in water). Quantification of the stained biofilm was performed by measuring the absorbance at 630 nm using a Multiskan Ascent microplate reader (Thermo Scientific).
(§6) The experiment was carried out on three different days (thus providing 3 biological replicas) and each day the experiment was carried out in quadruple (thus providing 4 technical replicas) for each combination of bacterium with saccharide and for each control. For each day and for each combination, the average (mean) of the values obtained (as detailed above) for the four technical replicas was calculated to provide a single value for each combination on each day. The values shown in Tables 7a, 7b, 8a, 8b, below, are the average (mean) of the three single values obtained for each combination of bacterium with saccharide.

S. salivarius = assay: Twenty-four hour biofilm growth (crystal violet)
Method: as §5, §6

S. sanguinis = assay: Twenty-four hour biofilm growth (crystal violet)
Method: as §5, §6

[2] = tested on: beneficial oral bacteria and pathogenic oral bacteria; assay: Microarray screen, overall prebiotic assessment; settings: 24 hrs
Method: Substrates that were able to increase the metabolic activity of at least one of the above beneficial bacteria while not or only minimally increasing the growth of the pathogenic bacteria are considered to be prebiotic substrates.
as §1, §2, §3, §4
This value was selected in order to exclude low-stimulating metabolites and avoid false positive results.

SMILES	metabolic activity: OD 492 nm divided by OD of control (control = 1) (Actinomyces viscosus; 24 hrs)	metabolic activity: OD 492 nm divided by OD of control (control = 1) (Actinomyces viscosus; 48 hrs)	metabolic activity: OD 492 nm divided by OD of control (control = 1) ([1]; 24 hrs)	metabolic activity: OD 492 nm divided by OD of control (control = 1) ([1]; 48 hrs)	metabolic activity: OD 492 nm divided by OD of control (control = 1) (Prevotella intermedia; 24 hrs)	metabolic activity: OD 492 nm divided by OD of control (control = 1) (Prevotella intermedia; 48 hrs)	metabolic activity: OD 492 nm divided by OD of control (control = 1) (Streptococcus mutans; 24 hrs)	metabolic activity: OD 492 nm divided by OD of control (control = 1) (Streptococcus mutans; 48 hrs)	metabolic activity: OD 492 nm divided by OD of control (control = 1) (Streptococcus salivarius; 24 hrs)	metabolic activity: OD 492 nm divided by OD of control (control = 1) (Streptococcus salivarius; 48 hrs)	biofilm growth: OD 630 nm at 24 hrs divided by OD of control (control = 1) (S. mitis; 5 μmol/ml)	biofilm growth: OD 630 nm at 24 hrs divided by OD of control (control = 1) (S. mitis; 10 μmol/ml)	biofilm growth: OD 630 nm at 24 hrs divided by OD of control (control = 1) (S. mitis; 20 μmol/ml)	biofilm growth: OD 630 nm at 24 hrs divided by OD of control (control = 1) (S. mitis; 25 μmol/ml)	biofilm growth: OD 630 nm at 24 hrs divided by OD of control (control = 1) (S. salivarius; 5 μmol/ml)	biofilm growth: OD 630 nm at 24 hrs divided by OD of control (control = 1) (S. salivarius; 10 μmol/ml)	biofilm growth: OD 630 nm at 24 hrs divided by OD of control (control = 1) (S. salivarius; 20 μmol/ml)	biofilm growth: OD 630 nm at 24 hrs divided by OD of control (control = 1) (S. salivarius; 25 μmol/ml)	biofilm growth: OD 630 nm at 24 hrs divided by OD of control (control = 1) (S. sanguinis; 5 μmol/ml)	biofilm growth: OD 630 nm at 24 hrs divided by OD of control (control = 1) (S. sanguinis; 10 μmol/ml)	other results
CC(=O)N[C@H](C=O)[C@@H](O)[C@H](O)[C@H](O)CO [N-acetyl-D-mannosamine, 2-acetamido-2-deoxy-D-mannose]	0.9778	1.0151	1.7369	2.1360	0.9878	0.9805	1.0429	1.0176	1.0589	0.9795	2.4328	4.2456	2.1524	3.0078	0.6489	0.6824	0.3314	0.3520	1.5651	2.4890	biofilm growth: OD 630 nm at 24 hrs divided by OD of control (control = 1) (S. sanguinis; 20 μmol/ml): 0.5600; biofilm growth: OD 630 nm at 24 hrs divided by OD of control (control = 1) (S. sanguinis; 25 μmol/ml): 1.0289; prebiotic effects (metabolic activity, threshold value 2) [2]: exhibited prebiotic effects; speed of metabolism by beneficial versus pathogenic bacteria (value of 2 reached at 24 hrs) [2]: metabolized faster by the beneficial bacteria than by the pathogenic bacteria
OC[C@@H](O)[C@@H](O[C@H]1O[C@H](CO)[C@H](O)[C@H](O)[C@H]1O)[C@H](O)[C@@H](O)CO [D-Lactitol, 4-O-α-D-galactopyranosyl-D-glucitol]	4.2553	4.9364	0.8916	0.8237	0.9834	0.9481	2.0160	2.7520	4.7396	5.1101	0.6696	0.5919	0.8007	0.8340	2.1471	4.8849	5.5726	6.4158	1.2160	1.5548	increase in metabolic activity of A. viscosus, in words (Actinomyces viscosus; 24 hrs): marked increase; increase in metabolic activity of S. mutans, in words (Streptococcus mutans; 24 hrs): borderline increase; increase in metabolic activity of S. salivarius, in words (Streptococcus salivarius; 24 hrs): marked increase; biofilm growth: OD 630 nm at 24 hrs divided by OD of control (control = 1) (S. sanguinis; 20 μmol/ml): 1.8523; biofilm growth: OD 630 nm at 24 hrs divided by OD of control (control = 1) (S. sanguinis; 25 μmol/ml): 2.2341; prebiotic effects (metabolic activity, threshold value 2) [2]: exhibited prebiotic effects
OC[C@H]1O[C@@](O)(CO)[C@@H](O[C@H]2O[C@H](CO)[C@@H](O)[C@H](O)[C@H]2O)[C@@H]1O [D-Turanose, α-D-glucopyranosyl-(1→3)-α-D-fructofuranose]	2.2260	3.0809	1.0170	1.2549	1.1121	1.2058	1.4769	2.1955	1.1489	1.2834	1.9433	1.5717	0.5236	0.3988	0.9812	0.9793	0.8441	0.8731	2.0761	2.7352	biofilm growth: OD 630 nm at 24 hrs divided by OD of control (control = 1) (S. sanguinis; 20 μmol/ml): 1.6356; biofilm growth: OD 630 nm at 24 hrs divided by OD of control (control = 1) (S. sanguinis; 25 μmol/ml): 1.9363; prebiotic effects (metabolic activity, threshold value 2) [2]: exhibited prebiotic effects; speed of metabolism by beneficial versus pathogenic bacteria (value of 2 reached at 24 hrs) [2]: metabolized faster by the beneficial bacteria than by the pathogenic bacteria
